Results on 5 compounds are retold here after US5593970A, “Heterocyclic anthracycline analogs” (priority 1994, dated 1997).

Where “and” joins values, the source holds several entries; their conditions need not be identical. Identical values can stand only once. Like-named read-outs stand apart in the source and are kept apart here.

In one data set the test system is LOX. Put plainly: Microculture tetrazolium assay. In kind it is cell-based. Particulars: read-out: IC50.
For the next data set, the system named is T47D. Put plainly: Microculture tetrazolium assay. In kind it is cell-based.
The next data set relates to Renal. The data set is described as follows: NCI assay, average per cancer type. Particulars: for CC50 / GI50: Homo sapiens; for CC50: 48 h, read-out: Average LOG10 LC50; for GI50: read-out: Average LOG10 GI50; for Average LOG10 LC50: Renal, 2880 min.
Another data set relates to Ovarian. Put plainly: NCI assay, average per cancer type. Particulars: for GI50: Homo sapiens, read-out: Average LOG10 GI50.
A further data set has as its system Melanoma. The data set is described as follows: NCI assay, average per cancer type. Particulars: for CC50 / GI50: Homo sapiens; for CC50: 48 h, read-out: Average LOG10 LC50; for GI50: read-out: Average LOG10 GI50; for Average LOG10 LC50: Melanoma, 2880 min.
For the next data set, the system named is Colon. Put plainly: NCI assay, average per cancer type. To be noted: for Average LOG10 LC50: Colon, 2880 min; for CC50 / GI50: Homo sapiens; for CC50: 48 h, read-out: Average LOG10 LC50; for GI50: read-out: Average LOG10 GI50.
A further data set deals with solid tumors. Put plainly: NCI assay, mean potency in solid tumors. Particulars: for GI50: Homo sapiens, read-out: Average LOG10 GI50, Mean Potency in solid tumors; for Average LOG10 LC50, Mean Potency in solid tumors: 2880 min.
The next data set has as its system CNS. Put plainly: NCI assay, average per cancer type. To be noted: for GI50: Homo sapiens, read-out: Average LOG10 GI50.
The next data set deals with Leukemia. The data set is described as follows: NCI assay, average per cancer type. To be noted: for CC50: 48 h, read-out: Average LOG10 LC50; for Average LOG10 LC50: Leukemia, 2880 min; for GI50: read-out: Average LOG10 GI50.
For the next data set, the system named is SKVLB. Put plainly: Microculture tetrazolium assay. Type of data set: cell-based. To be noted: for VLB/OV3: IC50 ratio SKVLB/SKOV3; for IC50: SKVLB.
The next data set has as its system SC Lung. Put plainly: NCI assay, average per cancer type. To be noted: for GI50: Homo sapiens, read-out: Average LOG10 GI50; for Average LOG10 LC50: SC Lung, 2880 min.
For a further data set, the system named is NSC Lung. Put plainly: NCI assay, average per cancer type. Particulars: for CC50 / GI50: Homo sapiens; for CC50: 48 h, read-out: Average LOG10 LC50; for GI50: read-out: Average LOG10 GI50; for Average LOG10 LC50: NSC Lung, 2880 min.
The next data set has as its system MATB.WT. Put plainly: Soft agar colony formation disk diffusion assay. In kind it is cell-based, rat. Particulars: 100 μg/DISK. An excerpt: (§1) A more elaborate version of this fundamental assay, the soft agar colony formation disk diffusion assay was used. This assay defines the relative activity of one particular drug versus a tumoral cell line type. The effect of the test drug against tumoral cells could be measured by its inhibitory capacity against colony formation after the delivery of the compound, in different concentrations on an filter disk(4). A modified technique of this assay was used in order to investigate the antiproliferative activity of candidate compounds. Tumoral cells from solid tumors and ascitic lines were plated separately in a two layer agar matrix. Cell lines to be tested were suspended in an upper layer of 0.4% Noble agar (Difco#00142-01) in RPMI-1066 (Gibco#3201875) at a yield varying between 10^4 to 2×10^5 cells per 60 mm Petri dish. Plating efficiency was determined for each line in order to achieve an optimal number of colonies per dish. Plates were examined before drug administration to confirm a uniform dispersion of single cells. The bottom layer consisted of 0.8% Noble agar, 0.8% Tryptic Soy Broth (difco#0037001)in CMRL-1066/Fischer's. The bottom layers were used within 2 and 9 days of preparation. Plated dishes (bottom layer of agar, upper layer of cells and administered drug were incubated in humidified atmosphere at 37° C., 5% CO2 for 10-20 days depending upon the time necessary to observe adequate colonies (defined as a cell aggregate of more than 50 cells) both control and drug inhibited. Drugs were administered on a paper filter disk (Whatman No. 1) of 6.5 mm diameter placed on the upper layer at 1/3 distance from the edge of the dish. The anti-clonogenic activity of the compounds was measured as the zone of inhibition from the disk edge to the most proximal colonies. This zone of inhibition was checked on an inverted microscope (40×) and was measured with a micrometer mounted in the eyepiece. The ocular micrometer was calibrated with a stage micrometer set for a particular combination of ocular and objective lenses. […] We made a modification of the initial technique by not plating a solid tumor and a leukemia simultaneously in the same Petri dish. Anti-clonogenic tests performed on leukemia cell line have helped in the discovery of the majority of current clinically used cytostatic drugs. Our tests on solid tumor lines (animal or human) may help define active compounds with solid tumor specificity. […] Murine tumors were maintained IN VIVO in order to diminish the selection of subpopulations of cells normally present in the heterogenous IN VIVO tumor. The actual drug sensitivity assay was done IN VITRO. For these experiments cells from freshly excised tumors or from ascitic fluids were maintained in RPMI-1066. Both compounds were dissolved in DMSO (1 mg/100 ul) and brought to final volume (250 ul) with Millipore deionized sterile water. Further dilutions were made with […] volume of 25 ul of freshly prepared solution was placed on the filter disk and allowed to dry.
In general terms: In agar diffusion tests the substance spreads into inoculated agar from a disc or well.

A further data set relates to MATB/ADR. Put plainly: Soft agar colony formation disk diffusion assay. Type of data set: cell-based, rat.
Excerpt: as §1

A further data set deals with SKOV3. Put plainly: Microculture tetrazolium assay. To be noted: read-out: IC50. In kind it is cell-based.
The subject of the next data set is MCF7. The data set is described as follows: Soft agar colony formation disk diffusion assay. In kind it is cell-based, human. Particulars: 100 μg/DISK. The text has this: (§2) A more elaborate version of this fundamental assay, the soft agar colony formation disk diffusion assay was used. This assay defines the relative activity of one particular drug versus a tumoral cell line type. The effect of the test drug against tumoral cells could be measured by its inhibitory capacity against colony formation after the delivery of the compound, in different concentrations on an filter disk(4). A modified technique of this assay was used in order to investigate the antiproliferative activity of candidate compounds. Tumoral cells from solid tumors and ascitic lines were plated separately in a two layer agar matrix. Cell lines to be tested were suspended in an upper layer of 0.4% Noble agar (Difco#00142-01) in RPMI-1066 (Gibco#3201875) at a yield varying between 10^4 to 2×10^5 cells per 60 mm Petri dish. Plating efficiency was determined for each line in order to achieve an optimal number of colonies per dish. Plates were examined before drug administration to confirm a uniform dispersion of single cells. The bottom layer consisted of 0.8% Noble agar, 0.8% Tryptic Soy Broth (difco#0037001)in CMRL-1066/Fischer's. The bottom layers were used within 2 and 9 days of preparation. Plated dishes (bottom layer of agar, upper layer of cells and administered drug were incubated in humidified atmosphere at 37° C., 5% CO2 for 10-20 days depending upon the time necessary to observe adequate colonies (defined as a cell aggregate of more than 50 cells) both control and drug inhibited. Drugs were administered on a paper filter disk (Whatman No. 1) of 6.5 mm diameter placed on the upper layer at 1/3 distance from the edge of the dish. The anti-clonogenic activity of the compounds was measured as the zone of inhibition from the disk edge to the most proximal colonies. This zone of inhibition was checked on an inverted microscope (40×) and was measured with a micrometer mounted in the eyepiece. The ocular micrometer was calibrated with a stage micrometer set for a particular combination of ocular and objective lenses. […] We made a modification of the initial technique by not plating a solid tumor and a leukemia simultaneously in the same Petri dish. Anti-clonogenic tests performed on leukemia cell line have helped in the discovery of the majority of current clinically used cytostatic drugs. Our tests on solid tumor lines (animal or human) may help define active compounds with solid tumor specificity. […] HUMAN TUMORS. […] LS180 (13) and BE1(14) were obtained from the Oncology Dept. of the Montreal General Hospital. […] Cell lines were routinely passaged twice a week by trypsinization and maintained in 25, or 75-sq. cm Falcon Plastic flasks at 37° C., 5% CO2 in humidified atmosphere. Both compounds were dissolved in DMSO (1 mg/100 ul) and brought to final volume (250 ul) with Millipore deionized sterile water. Further dilutions were made with […] volume of 25 ul of freshly prepared solution was placed on the filter disk and allowed to dry.

Another data set has as its system MCF7/ADR. The data set is described as follows: Soft agar colony formation disk diffusion assay. Type of data set: cell-based, human. Particulars: 100 μg/DISK.
Excerpt: as §2

The subject of a further data set is HT29. Put plainly: Microculture tetrazolium assay. In kind it is cell-based. To be noted: HT29; read-out: IC50.

`COc1cccc2c1C(=O)c1c(O)c3c(c(O)c1C2=O)C[C@@](O)(C(=O)CO)C[C@@H]3O[C@H]1C[C@H](N)[C@H](O)[C@H](C)O1` [ADR, reference compound]: the IC50 is 43.7 nM in the data set on LOX, 76.3 nM in the data set with T47D (Homo sapiens), 72 nM in the data set on T47D (listed as Adriamycin) and 4720 nM in the data set with SKVLB. Further, the CC50 in the data set on Renal is 13500 nM; with Melanoma, 2750 nM; in the data set on Colon it was 13800 nM; in the data set on Leukemia, 17400 nM; with NSC Lung, 9770 nM. Further, the GI50 is 182 nM in the data set on Renal; 282 nM with Ovarian; 120 nM in the data set on Melanoma; 245 nM with Colon; 117 nM in the data set on solid tumors; 85.1 nM in the data set on CNS. Moreover, the results for the GI50 in the data set on Leukemia, with SC Lung and in the data set with NSC Lung were 30.9 nM, 53.7 nM and 46.8 nM, respectively. Besides, the “Average LOG10 LC50” value with Renal is reported as -4.87 ± 0.38 log molar; with Melanoma, -5.56 ± 0.29 log molar; with Colon, -4.86 ± 0.27 log molar; in the data set with Leukemia, -4.76 ± 0.10 log molar; in the data set on SC Lung it was -5.39 ± 0.18 log molar; in the data set with NSC Lung, -5.01 ± 0.26 log molar. For the same compound, the “Average LOG10 LC50, Mean Potency in solid tumors” value in the data set on solid tumors was -5.07 ± 0.28 log molar. Further, the VLB/OV3 in the data set with SKVLB (listed as Adriamycin) was 82.63 and 121.5.
`CCOC(=O)C1Cc2c(OCC)c3c(c(O)c2C(O[C@H]2C[C@H](NC(=O)C(F)(F)F)[C@H](O)[C@H](C)O2)O1)C(=O)c1ccccc1C3=O` (some centres unmarked) [BCH-705]: the zone of inhibition in the data set on MATB.WT was found to be 259.2 ± 21.5 Zone Units; in the data set with MATB/ADR (100 μg/DISK), 155.5 ± 4.3 Zone Units; in the data set with MCF7, 79.3 ± 8.6 Zone Units; with MCF7/ADR, 35.5 ± 7.3 Zone Units. The “cross resistance with adriamycin, MATB/ADR vs MATB.WT” value in the data set with MATB/ADR is recorded as “no cross resistance with adriamycin”. The IC50 with SKOV3 (Homo sapiens, SK-OV-3, SKOV3) is 12900 nM; with SKVLB (read-out: IC50), 14100 nM. Moreover, in the data set with SKVLB, the VLB/OV3 was 1.09.
In the case of `COc1cccc2c1C(=O)c1c(O)c3c(c(O)c1C2=O)C[C@@](O)(C(C)=O)C[C@@H]3O[C@H]1C[C@H](N)[C@H](O)[C@H](C)O1` [DNM, reference compound], the CC50 in the data set with Renal was 16600 nM; in the data set with Melanoma it was 2290 nM; in the data set with Colon, 14800 nM; in the data set with Leukemia it was 50100 nM; in the data set on NSC Lung it was 8510 nM. In addition, the GI50 was 162 nM with Renal; 138 nM with Ovarian; 112 nM with Melanoma; 151 nM in the data set with Colon; 112 nM in the data set on solid tumors; 91.2 nM with CNS. Further, the GI50 is 56.2 nM in the data set with Leukemia, 72.4 nM in the data set with SC Lung and 91.2 nM in the data set with NSC Lung. Moreover, the “Average LOG10 LC50” value in the data set on Renal is -4.78 ± 0.46 log molar; in the data set on Ovarian (Ovarian, 2880 min), -4.78 ± 0.20 log molar; with Melanoma it was -5.64 ± 0.17 log molar; in the data set on Colon, -4.83 ± 0.37 log molar; with CNS (CNS, 2880 min), -5.08 ± 0.42 log molar; in the data set with Leukemia it was -4.30 ± 0.36 log molar. Also, the “Average LOG10 LC50” value is -5.58 ± 0.09 log molar with SC Lung and -5.07 ± 0.37 log molar with NSC Lung. The “Average LOG10 LC50, Mean Potency in solid tumors” value with solid tumors is recorded as -5.11 ± 0.34 log molar.
“(1'S,1R,3R) and (1'S,1S,3S)-5,12-dioxo-3-ethyl-6-hydroxy-1-(2',3',6'-trideoxy-3'-trifluoroacetamido-4'-O-p-nitrobenzoyl-L-lyxohexopyranose)-3,4,5,12-tetrahydroanthraceno[2,3-C]pyran [BCH-1199]”: the IC50 was greater than 100000 nM in the data set on LOX; 46200 nM in the data set with T47D (read-out: IC50); 32300 nM with SKOV3 (SKOV3); greater than 100000 nM in the data set with HT29; greater than 100000 nM in the data set with SKVLB (read-out: IC50).
Regarding “(1'S,1R,3S) and (1'S,1S,3R)-Methyl-1-(2',3',6'-trideoxy-3-trifluoroacetamido-4'-O-p-nitrobenzoyl-L-lyxohexopyranose)-6,11'dioxo-5'-hydroxy-12-acetoxy-3,4,6,11-tetrahydroanthra-ceno-[2,3-C]-pyran-3-yl) ketone [BCH-1163]”, the 50% inhibitory concentration (IC50) in the data set on LOX was determined as 26100 nM; with T47D (read-out: IC50), 5000 nM; in the data set on SKOV3 (SKOV3) it was 11000 nM; in the data set on HT29, 4670 nM; in the data set on SKVLB (read-out: IC50), 11600 nM. The VLB/OV3 in the data set on SKVLB was determined as 1.05.

One may read the IC50 as the point on the concentration scale where inhibition reaches its midpoint. The GI50 is the concentration that inhibits growth by half.
